In publication PMC8113020 (Chemistry of Heterocyclic Compounds, 2021):

System: Coxsackie B3 virus (strain Nancy)
Assay: microbe, parasite or virus in culture
Assay type: cell-based
Settings: Enterovirus B, B3, Vero, 48 h, read-out: IC50 (50% inhibitory concentration)

SMILES: NC(=O)c1ncn([C@@H]2O[C@H](CO)[C@@H](O)[C@H]2O)n1 [Ribavirin]
- IC50: 56 ± 8 µM
